Measured values from patent US12303594B2, “Antimicrobial and anti-inflammatory compositions” (The Texas A&M University System, priority 2015, dated 2025).

Experiments:
[1] = Angle of repose (USP method); assay type: physicochemical; settings: N = 3
Protocol: Angle of repose: Angles of repose were measured in triplicate according to the United States Pharmacopoeia (USP) method. Images of the powder mounds were taken using a digital camera and were analyzed using the ImageJ software (Wayne Rasband, Research Services Branch, National Institute of Mental Health, Bethesda, MD, USA). […]

[2] = Bulk and tapped density, compressibility index and Hausner ratio; assay type: physicochemical
Protocol: In this modified method, a 10 mL graduated cylinder fitted with a molded adapter substituted the 100 mL graduated cylinder in the tapped density tester. The compressibility index (CI) and Hausner ratio (HR) calculations were performed according to the following formulas: The tapped density (rT) calculations were performed using a tapped density tester (Agilent Technologies, Santa Clara, CA, USA) with a modified method from the USP for a small mass of powder. In this modified method, a 10 mL graduated cylinder fitted with a molded adapter substituted the 100 mL graduated cylinder for the calculations of the bulk density (rB) and the use in the tapped density tester. The compressibility index (CI) and the Hausner ratio (HR) calculations were performed according to the following formulas: […]

[3] = Particle size distribution by laser light diffraction; assay type: physicochemical
Protocol: The particle size distribution (PSD) D10, D50, and D90 values for each sample were defined as particle diameters at the 10th, 50th, and 90th percentile and the span value was calculated according to Equation 2: […]
PSD analysis by laser light diffraction: PSDs were determined using a Sympatec Helos equipped with a Cuvette module (System-Partikel-Technik GmbH, Clausthal-Zellerfeld, Germany). Data were analyzed using the Sympatec WINDOX software. For each measurement, per a previously optimized method, about 2 mg of powder was dispersed in 0.5 mL of 0.1% (w/v) sodium dodecyl sulfate in water and the sample was sonicated for 5 min. […] After the reference measurement, 50 μL aliquots of the sonicated suspension were added to the cell to achieve optical concentrations of between 10 to 20% and the total of six measurements were performed on each sample. Formulations immediately following air-jet milling (25IBU10.1, 25IBU10.2) and after 6 months (25IBU10.1**, 25IBU10.2**) stored at RT (IBU10.1), or at −80° C. (IBU10.2) were analyzed.
PSDs were determined using a Sympatec Helos equipped with a Cuvette module (System-Partikel-Technik GmbH, Clausthal-Zellerfeld, Germany). Data were analyzed using the Sympatec WINDOX software. For each measurement per a previously optimized method, about 2 mg of powder was dispersed in 0.5 mL of 0.1% (w/v) SLS in water and the sample was sonicated for 5 minutes. […] After the reference measurement, 50 μL aliquots of the sonicated suspension were added to the cell to achieve optical concentrations of between 10 to 20% and the total of six measurements were performed on each sample. Analyzed samples included: unprocessed IBU and IND as well as the milled samples from different sections of the jet mill including the tube after grinding chamber (bfC), the cyclone (C), the collection vessel adapter (D), the collection bag adapter (E), the collection vessel (G) and the collection bag (H) for each run. The span value was calculated according to Equation 2.
To estimate the overall D10, D50, and D90 values for the combined recovered fractions associated with each run, stacked bar charts were graphed and analyzed to determine the yield normalized cumulative PSDs. Each stacked bar corresponded to a particle size bin and its height corresponded to the volume density distributions' weighted averages by the yield for each segment of the jet mill. The D10, D50, and D90 values for the normalized cumulative PSDs were the particle sizes corresponding to the 10, 50, and 90% area of the stacked bar chart respectively.
Tween 20 and sodium lauryl sulfate (SLS) were purchased from Fisher Scientific (Fisher Scientific, Pittsburgh, PA, USA), and dH2O was used for preparing solutions. […] A reference measurement was done in 0.1% (v/v) Span 85 in light mineral oil. After a reference measurement, aliquots of […] of sonicated suspension were added to achieve optical concentrations from 10 to 20% for a total of six measurements.
Furthermore, D10, D50, and D90 values for each sample were defined as particle diameters at the 10th, 50th, and 90th percentile of the PSD. Span was calculated according to Equation 2. Normalized cumulative PSDs were composed of yield-normalized distributions, where they were depicted as stacked bar charts. D10, D50, and D90 values for normalized cumulative PSDs were calculated by approximating particle sizes associated with 10%, 50%, and 90% area of the stacked bar chart.

PA HP3 = test: Endpoint time-kill synergy study; settings: ibuprofen with sub-MIC antimicrobial vs antimicrobial alone, 9 hours
Protocol: (§1) Afterwards, the inoculums were plated to determine their CFU/ml. Synergy from the combination was determined by a ≥2×log10 decrease in CFU/ml when compared to antimicrobial treatment alone.

SA 25-05 = test: Endpoint time-kill synergy study; settings: ibuprofen with sub-MIC antimicrobial vs antimicrobial alone, 6 hours
Protocol: as §1

[4] = tested on: Burkholderia multivorans, BM; test: In vitro bacterial growth study (OD600); settings: 10 μg/mL or 1 μg/mL ibuprofen solution added 1:1 (v:v)
Protocol: Various gram-negative bacterial strains (Pseudomonas aeruginosa, PA01: Burkholderia multivorans, BM; and an Escherichia coli strain. EC J53+pmg101) were cultured in Mueller Hinton (MH) broth to a density of 5*10^5 colony forming units (CFU)/ml as verified by serial dilution and growth of colonies on tryptic soy agar (TSA) plates. […] Endpoint CFU counting was also performed on PA01 and a Staphylococcus aureus vancomycin-intermediate (VISA) strain (Mu50).

PA01 = test: Mouse model of acute P. aeruginosa pneumonia (bacterial burden, weight, clinical scores); assay type: in vivo, mice
[5] = Brunauer-Emmett-Teller specific surface area; assay type: physicochemical
Protocol: Brunauer-Emmett-Teller: Surface area (SA) was evaluated via a single-point BET method using a Monosorb® surface area analyzer (Quantrachrome Instruments; FL, USA) following 24 hour outgassing with helium at room temperature (RT) before each measurement in triplicate on a known powder mass (m). SSA was calculated using Equation 3: […]
Brunauer-Emmett-Teller (BET) specific surface area (SSA) measurements were taken. Surface area (SA) was evaluated via a single-point BET method using a Monosorb® surface area analyzer (Quantrachrome Instruments; FL, USA) following 24 hour outgassing with helium at room temperature before each measurement in triplicates. Samples masses (m) were at least 50 mg for the jet-milled powders depending on availability and 500 mg for the unprocessed samples. SSA was calculated according to the following formula: […]

[6] = collection bag fraction or stock, Table 8
[7] = fraction used for testing (IBU collection bag, IND cyclone) or unprocessed powder
[8] = 0.75 mg in syrup by mouth every 8 hours, 36 hours post-infection, vs syrup only

CC(C)Cc1ccc(C(C)C(=O)O)cc1 (stereo not drawn) [ibuprofen, 2(4-isobutylphenyl)propanoic acid]
Angle of Repose [1]: 62.6 ± 2.9 º | bulk density [2]: 0.268 g/mL | tap density [2]: 0.441 g/mL | ρB (bulk density) [2]: 0.27 g/mL | ρT (tapped density) [2]: 0.44 g/mL | D50 [3, 6]: 48.0 μm | D90 [3, 6]: 106.7 μm | Span [3, 6]: 1.8 | Span [3, 7]: 1.84 | median size (d50) [3, 7]: 48 μm | killing efficacy of ceftazidime and gentamicin (CFU/ml) (PA HP3): significantly increased the killing efficacy of both ceftazidime and gentamicin | killing efficacy of ceftazidime and gentamicin (CFU/ml) (SA 25-05): significantly increased the killing efficacy of both ceftazidime and gentamicin | bacterial growth (OD600) [4]: slowed and/or delayed the growth | lung bacterial burden (CFU counts) (PA01; [8]): Significant reductions | spleen bacterial burden (CFU counts) (PA01; [8]): Significant reductions | weight loss after infection (PA01; 36 hour study): no significant effect | surface area [5]: 0.357±0.005 m^2/g | SSA ([5]; N = 3): 0.36 ± 0.01 m^2/g
